The text below walks through data of US9102614B2, “Naphth-2-ylacetic acid derivatives to treat AIDS” (Gilead Sciences, Inc., priority 2010, dated 2015).

Where two headings read alike, the source gives them in different places.

In this experiment the test system is HIV-IIIb. Description: Test A: Antiviral Assays in MT4 Cells. As to conditions: MT-4 cells infected with HIV-IIIb (0.004 m.o.i.), 5 days of incubation, CellTiter-Glo chemiluminescence readout, read-out: EC50. The class given is cell-based. Here is the method: Test A: Antiviral Assays in MT4 Cells
For the antiviral assay utilizing MT-4 cells, 0.4 μL of […] test concentration of 3-fold serially diluted compound in DMSO was added to 40 μL of cell growth medium (RPMI 1640, 10% FBS, 1% penicillin/Streptomycin, 1% L-Glutamine, 1% HEPES) in each well of 384-well assay plates (10 concentrations) in quadruplicate.
1 mL aliquots of 2×10e6 MT-4 cells are pre-infected for 1 and 3 hrs respectively, @37° C. with 25 μL (MT4) or of either cell growth medium (mock-infected) or a fresh 1:250 dilution of an HIV-IIIb concentrated ABI stock (0.004 m.o.i. for MT4 cells). Infected and uninfected cells are diluted in cell growth medium and 35 uL of 2000 (for MT4) cells is added to each well of the assay plates.
Assay plates were then incubated in a 37° C. incubator. After 5 days of incubation, 25 μl of 2× concentrated CellTiter-Glo™ Reagent (catalog #G7573, Promega Biosciences, Inc., Madison, Wis.) was added to each well of the assay plate. Cell lysis was carried out by incubating at room temperature for 2-3 min and then chemiluminescence was read using the Envision reader (PerkinElmer).

Where [1] appears, read: Human immunodeficiency virus 1, IIIB, MT4, 120 h.

For orientation: EC50 means the midpoint of the concentration-response curve. For `Cc1cc2ccccc2c(-c2cc(F)cc3cccnc23)c1[C@H](OC(C)(C)C)C(=O)O` (atropisomer, axis not shown) [Compound 9, (S)-2-tert-Butoxy-2-(1-((R)-6-fluoroquinolin-8-yl)-3-methylnaphthalen-2-yl)acetic acid], the EC50 was 1.3 µM.

For the molecule `Cc1cc2c(C#N)c(C)ccc2c(-c2ccc3c4c(ccnc24)CCO3)c1[C@H](OC(C)(C)C)C(=O)O` (atropisomer, axis not shown) [Compound 118, (S)-2-tert-Butoxy-2-((R)-5-cyano-1-(2,3-dihydropyrano[4,3,2-de]quinolin-7-yl)-3,6-dimethylnaphthalen-2-yl)acetic acid], the EC50 under setting [1] came to 0.036 µM.

On to `CCc1ccc2c(-c3ccc4c5c(ccnc35)CCO4)c([C@H](OC(C)(C)C)C(=O)O)c(C)cc2c1F` (atropisomer, axis not shown) [Compound 120, (S)-2-tert-Butoxy-2-((R)-1-(2,3-dihydropyrano[4,3,2-de]quinolin-7-yl)-6-ethyl-5-fluoro-3-methylnaphthalen-2-yl)acetic acid], for which the EC50 under setting [1] stood at 0.032 µM.

`Cc1cc2c(Cl)c(C)ccc2c(-c2ccc3c4c(ccnc24)CCO3)c1[C@H](OC(C)(C)C)C(=O)O` (atropisomer, axis not shown) [Compound 151]: the EC50 under setting [1] was found to be 0.85 µM.

Consider `Cc1cc2c(F)c(Cl)ccc2c(-c2ccc3c4c(ccnc24)CCO3)c1[C@H](OC(C)(C)C)C(=O)O` (atropisomer, axis not shown) [Compound 152], for which the EC50 turned out to be 5.8 µM.

Turning to `Cc1cc2c(-c3cncnc3)cc(F)cc2c(-c2ccc3c4c(ccnc24)CCO3)c1[C@H](OC(C)(C)C)C(=O)O` (atropisomer, axis not shown) [Compound 153], under setting [1], the EC50 came out at 11 µM.

With `Cc1cc2c(C#N)cc(F)cc2c(-c2ccc3c4c(ccnc24)CCO3)c1[C@H](OC(C)(C)C)C(=O)O` (atropisomer, axis not shown) [Compound 154], the EC50 under setting [1] worked out at 29 µM.

Take `Cc1cc2c(C(N)=O)cc(F)cc2c(-c2ccc3c4c(ccnc24)CCO3)c1[C@H](OC(C)(C)C)C(=O)O` (atropisomer, axis not shown) [Compound 155]: the EC50 under setting [1] stood at 29 µM.

As for `Cc1cc2cc(C)c([C@H](OC(C)(C)C)C(=O)O)c(-c3ccc4c5c(ccnc35)CCO4)c2cc1F` (atropisomer, axis not shown) [Compound 156], the EC50 stood at 7.3 µM.

For the molecule `Cc1cc2cc(C(F)F)c(F)cc2c(-c2ccc3c4c(ccnc24)CCO3)c1[C@H](OC(C)(C)C)C(=O)O` (atropisomer, axis not shown) [Compound 164], the EC50 under setting [1] is 25 µM.

With `CCc1cc2cc(C)c([C@H](OC(C)(C)C)C(=O)O)c(-c3ccc4c5c(ccnc35)CCO4)c2cc1F` (atropisomer, axis not shown) [Compound 165], under setting [1], the EC50 came out at 53 µM.

`CNC(=O)c1cc2cc(C)c([C@H](OC(C)(C)C)C(=O)O)c(-c3ccc4c5c(ccnc35)CCO4)c2cc1F` (atropisomer, axis not shown) [Compound 166]: the half-maximal effective concentration (EC50) under setting [1] is 16 µM.

On to `Cc1cc2cc(C(C)C)c(F)cc2c(-c2ccc3c4c(ccnc24)CCO3)c1[C@H](OC(C)(C)C)C(=O)O` (atropisomer, axis not shown) [Compound 167], for which, under setting [1], the concentration giving a half-maximal response (EC50) was determined as 29 µM.

Turning to `Cc1cc2cc(C(N)=O)c(F)cc2c(-c2ccc3c4c(ccnc24)CCO3)c1[C@H](OC(C)(C)C)C(=O)O` (atropisomer, axis not shown) [Compound 168], the concentration giving a half-maximal response (EC50) under setting [1] amounted to 45 µM.

With `Cc1cc2cc(C#N)c(F)cc2c(-c2ccc3c4c(ccnc24)CCO3)c1[C@H](OC(C)(C)C)C(=O)O` (atropisomer, axis not shown) [Compound 169], under setting [1], the EC50 came to 18 µM.

As to `Cc1cc2cc(C3CC3)c(F)cc2c(-c2ccc3c4c(ccnc24)CCO3)c1[C@H](OC(C)(C)C)C(=O)O` (atropisomer, axis not shown) [Compound 170], the 50% effective concentration (EC50) under setting [1] stood at 29 µM.

For the molecule `Cc1cc2cc(Cl)c(F)cc2c(-c2ccc3c4c(ccnc24)CCO3)c1[C@H](OC(C)(C)C)C(=O)O` (atropisomer, axis not shown) [Compound 171], the EC50 under setting [1] came to 36 µM.

Consider `Cc1cc2c(F)cc(F)cc2c(-c2ccc3c4c(ccnc24)CCO3)c1[C@H](OC(C)(C)C)C(=O)O` (atropisomer, axis not shown) [Compound 172], for which the EC50 under setting [1] came to 50 µM.

In the case of `Cc1cc2cc(F)c(F)cc2c(-c2ccc3c4c(ccnc24)CCO3)c1[C@@H](OC(C)(C)C)C(=O)O` (atropisomer, axis not shown) [Compound 173], the EC50 turned out to be 3.2 µM.

On to `Cc1cc2cc(F)c(F)cc2c(-c2ccc3c4c(ccnc24)CCO3)c1[C@H](OC(C)(C)C)C(=O)O` (atropisomer, axis not shown) [Compound 174], for which the EC50 under setting [1] was found to be 3.2 µM.

On to `Cc1cc2cc(Cl)ccc2c(-c2ccc3c4c(ccnc24)CCO3)c1[C@@H](OC(C)(C)C)C(=O)O` (atropisomer, axis not shown) [Compound 177], for which the EC50 under setting [1] came out at 37 µM.

For `Cc1c([C@H](OC(C)(C)C)C(=O)O)c(-c2ccc3c4c(ccnc24)CCO3)c2ccccc2c1F` (atropisomer, axis not shown) [Compound 178], under setting [1], the EC50 was determined as 34 µM.

Take `Cc1cc2ccc(F)cc2c(-c2ccc3c4c(ccnc24)CCO3)c1[C@H](OC(C)(C)C)C(=O)O` (atropisomer, axis not shown) [Compound 179]: under setting [1], the EC50 amounted to 18.7 µM.

With `Cc1cc2ccc(Cl)cc2c(-c2ccc3c4c(ccnc24)CCO3)c1[C@H](OC(C)(C)C)C(=O)O` (atropisomer, axis not shown) [Compound 180], the EC50 under setting [1] came to 29 µM.

Turning to `Cc1cc2cc(Cl)ccc2c(-c2ccc(Cl)cc2)c1C(OC(C)(C)C)C(=O)O` (racemic) [Compound 67, 2-tert-Butoxy-2-(6-chloro-1-(4-chlorophenyl)-3-methylnaphthalen-2-yl)acetic acid], under setting [1], the half-maximal effective concentration (EC50) stood at 0.29 µM.

As to `Cc1cc2ccc(F)cc2c(-c2ccc3c4c(ccnc24)CCO3)c1[C@H](OC(C)(C)C)C(=O)O` (racemic) [Compound 123, (±)-(2S)-2-tert-Butoxy-2-((R)-1-(2,3-dihydropyrano[4,3,2-de]quinolin-7-yl)-7-fluoro-3-methylnaphthalen-2-yl)acetic acid], the EC50 was 0.024 µM.

`Cc1cc2ccc(Cl)cc2c(-c2ccc3c4c(ccnc24)CCO3)c1C(OC(C)(C)C)C(=O)O` (racemic) [Compound 124, (±)-(S)-2-tert-butoxy-2-((R)-7-chloro-1-(2,3-dihydropyrano[4,3,2-de]quinolin-7-yl)-3-methylnaphthalen-2-yl)acetic acid]: the EC50 was 0.15 µM.

With `Cc1cc2ccccc2c(-c2ccc(Cl)cc2)c1[C@H](OC(C)(C)C)C(=O)O` [Compound 3K, (S)-2-tert-butoxy-2-(1-(4-chlorophenyl)-3-methylnaphthalen-2-yl)acetic acid], the EC50 under setting [1] turned out to be 0.056 µM.

For `Cc1cc2ccccc2c(-c2cccc3cccnc23)c1[C@H](OC(C)(C)C)C(=O)O` [Compound 4K, (S)-2-tert-butoxy-2-((R)-3-methyl-1-(quinolin-8-yl)naphthalen-2-yl)acetic acid], the concentration giving a half-maximal response (EC50) amounted to 0.301 µM.

Regarding `Cc1cc2ccccc2c(-c2cccc3cccnc23)c1[C@H](OC(C)(C)C)C(=O)O` [Compound 4L, (S)-2-tert-butoxy-2-((S)-3-methyl-1-(quinolin-8-yl)naphthalen-2-yl)acetic acid], the EC50 under setting [1] worked out at 22 µM.

As to `Cc1cc2ccccc2c(-c2ccc3c4c(ccnc24)CCO3)c1[C@H](OC(C)(C)C)C(=O)O` [Compound 5K, (S)-2-tert-Butoxy-2-((S)-1-(2,3-dihydropyrano[4,3,2-de]quinolin-7-yl)-3-methylnaphthalen-2-yl)acetic acid], the EC50 worked out at 4.6 µM.

Take `Cc1cc2ccccc2c(-c2ccc3c4c(ccnc24)CCO3)c1[C@H](OC(C)(C)C)C(=O)O` [Compound 6D, (S)-2-tert-Butoxy-2-((R)-1-(2,3-dihydropyrano[4,3,2-de]quinolin-7-yl)-3-methylnaphthalen-2-yl)acetic acid]: the EC50 was determined as 0.014 µM.

`Cc1cc2ccccc2c(-c2ccc(C(F)(F)F)c3cccnc23)c1[C@H](OC(C)(C)C)C(=O)O` [Compound 7D, (S)-2-tert-butoxy-2-((R)-3-methyl-1-(5-(trifluoromethyl)quinolin-8-yl)naphthalen-2-yl)acetic acid]: the EC50 is 1.7 µM.

Turning to `Cc1cc2ccccc2c(-c2ccc(C(F)(F)F)c3cccnc23)c1[C@H](OC(C)(C)C)C(=O)O` [Compound 7E, (S)-2-tert-butoxy-2-((S)-3-methyl-1-(5-(trifluoromethyl)quinolin-8-yl)naphthalen-2-yl)acetic acid], the EC50 was determined as 20 µM.

`Cc1cc2ccccc2c(C2=CCCCC2)c1[C@H](OC(C)(C)C)C(=O)O` [Compound 8, (S)-2-tert-Butoxy-2-(1-cyclohexenyl-3-methylnaphthalen-2-yl)acetic acid]: under setting [1], the EC50 turned out to be 0.025 µM.

Turning to `Cc1cc2ccccc2c(-c2ccc(F)c3cccnc23)c1[C@H](OC(C)(C)C)C(=O)O` [Compound 10, (2S)-2-tert-Butoxy-2-(1-(5-fluoroquinolin-8-yl)-3-methylnaphthalen-2-yl)acetic acid], under setting [1], the EC50 was 36 µM.
